According to patent US11648254B2 (Kumquat Biosciences Inc., priority 2021, dated 2023):
pIC50: −log10 of the molar value. Read-outs that look alike come from different tables or passages of the source.

Experiments:
[1] = test system: MIA PaCa-2 cells (K-Ras G12C); test: Ras-SOS cellular growth inhibition assay (CellTiter-Glo, 3D); format: cell-based; conditions: Homo sapiens
Experimental: MIA PaCa-2 (ATCC CRL-1420) and NCI-H1792 (ATCC CRL-5895) cell lines comprise a G12C mutation can be used to assess Ras cellular signaling in vitro, e.g., in response to a subject compound of the present disclosure. […] Cell culture medium (comprising, for example, MIA PaCa-2 cells) is prepared with DMEM/Ham's F12 (e.g., with stable Glutamine, 10% FCS, and 2.5% Horse Serum. NCI-H1792 culture medium is prepared with RPMI 1640 (e.g., with stable Glutamine) and 10% FCS. A CellTiter-Glo (CTG) luminescent based assay (Promega) is used to assess growth of the cells, as a measurement of the ability of the compounds herein to inhibit Ras signaling in the cells. The cells (e.g., 800-1200 per well) are seeded in their respective culture medium in standard tissue culture-treated ultra-low attachment surface 96-well format plates (Corning Costar #3474). The day after plating, cells are treated with a dilution series (e.g., a 9 point 3-fold dilution series) of the compounds herein (e.g., approximately 125 μl final volume per well). Cell viability can be monitored (e.g., approximately 5 days later) according to the manufacturer's recommended instructions, where the CellTiter-Glo reagent is added (e.g., approximately 65 μl), vigorously mixed, covered, and placed on a plate shaker (e.g., approximately for 20 min) to ensure sufficient cell lysis prior to assessment of luminescent signal. The IC50 values are determined using the four-parameter fit. The resulting IC50 value is a measurement of the ability of the compounds herein to reduce cell growth of Ras-driven cells as representative tumor cells.

[2] = biological target: SOS1 (Homo sapiens (Human), UniProt Q07889); test: Ras-SOS interaction assay (HTRF); format: biochemical
[3] = test system: NCI-H1975 cells (EGFR T790M L858R); test: EGFR-SOS cellular inhibition assay (CellTiter-Glo, 3D); format: cell-based; conditions: Homo sapiens
[4] = MIA PaCa-2, 120 h, MIA PaCa-2, 3D proliferation, about 5 days, read-out: Bio-Cell-Prolif-3D (MiaPaca2 IC50)
[5] = MIA PaCa-2, MIA PaCa-2, read-out: IC50 in inhibiting MIA PaCa-2 cell growth
[6] = K-RasG13D, read-out: IC50 value against SOS1
[7] = 120 h, NCI-H1975, 3D proliferation, about 5 days, read-out: Bio-Cell-Prolif-3D (H1975 IC50)
[8] = NCI-H1975, EGFR T790M L858R, read-out: IC50 in inhibiting growth of NCI-H1975 cell line
[9] = K-RasG13D utilized, read-out: IC50 inhibition of SOS

Sequence of SOS1 (Q07889 564-1049): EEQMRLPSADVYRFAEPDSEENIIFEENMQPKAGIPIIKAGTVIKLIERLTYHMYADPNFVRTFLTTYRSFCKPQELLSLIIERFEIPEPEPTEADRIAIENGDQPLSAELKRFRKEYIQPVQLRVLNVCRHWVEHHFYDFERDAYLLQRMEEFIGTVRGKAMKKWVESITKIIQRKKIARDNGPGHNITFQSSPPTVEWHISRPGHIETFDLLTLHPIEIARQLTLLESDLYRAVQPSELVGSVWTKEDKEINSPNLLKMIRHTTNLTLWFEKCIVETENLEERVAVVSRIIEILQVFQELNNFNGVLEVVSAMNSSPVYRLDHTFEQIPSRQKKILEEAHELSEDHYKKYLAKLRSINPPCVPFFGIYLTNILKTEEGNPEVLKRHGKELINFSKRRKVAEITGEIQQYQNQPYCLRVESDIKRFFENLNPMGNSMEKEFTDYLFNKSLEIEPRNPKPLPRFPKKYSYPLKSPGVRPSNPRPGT

| Compound | pIC50 [1, 4] | pIC50 [1, 5] | pIC50 [2, 6] | pIC50 [3, 7] | pIC50 [3, 8] | pIC50 [2, 9] |
| --- | --- | --- | --- | --- | --- | --- |
| COc1nc2nc(C)nc(N[C@H](C)c3cccc(C(F)F)c3F)c2cc1[C@H]1CCCN(C)C1 [Compound 135, N-((R)-1-(3-(difluoromethyl)-2-fluorophenyl)ethyl)-7-methoxy-2-methyl-6-((R)-1-methylpiperidin-3-yl)pyrido[2,3-d] pyrimidin-4-amine] | ≥ 6.00 |  | > 7.30 | ≥ 6.00 |  | > 7.00 |
| CNc1nc2nc(C)nc(N[C@H](C)c3cccc(C(F)F)c3F)c2cc1C1CCS(=O)(=O)CC1 [Compound 136, (R)-4-(4-((1-(3-(difluoromethyl)-2-fluorophenyl)ethyl)amino)-2-methyl-7-(methylamino)pyrido[2,3-d]pyrimidin-6-yl)tetrahydro-2H-thiopyran 1,1-dioxide] | ≥ 6.00 | > 6.30 | > 7.30 | ≥ 6.00 | > 6.30 | > 7.00 |
| Cc1nc(N[C@H](C)c2cccc(C(F)F)c2F)c2cc(C3CCS(=O)(=O)CC3)c(OCCO)nc2n1 [Compound 137, (R)-4-(4-((1-(3-(difluoromethyl)-2-fluorophenyl)ethyl)amino)-7-(2-hydroxyethoxy)-2-methylpyrido[2,3-d]pyrimidin-6-yl)tetrahydro-2H-thiopyran 1,1-dioxide] | ≥ 6.00 | > 6.30 | > 7.30 | ≥ 6.00 |  | > 7.00 |
| Cc1nc(N[C@H](C)c2cccc(C(F)F)c2F)c2cc(S(=O)(=O)C3CCN(C)CC3)c(C)nc2n1 [Compound 138, (R)-N-(1-(3-(difluoromethyl)-2-fluorophenyl)ethyl)-2,7-dimethyl-6-((1-methylpiperidin-4-yl)sulfonyl)pyrido[2,3-d]pyrimidin-4-amine] | ≥ 6.00 | > 6.30 | > 7.30 | ≥ 6.00 | > 6.30 |  |
| CNc1nc2nc(C)nc(N[C@H](C)c3cccc(C(F)F)c3F)c2cc1S(=O)(=O)C1CCN(C)CC1 [Compound 139, (R)-N4-(1-(3-(difluoromethyl)-2-fluorophenyl)ethyl)-N7,2-dimethyl-6-((1-methylpiperidin-4-yl)sulfonyl)pyrido[2,3-d]pyrimidine-4,7-diamine] | ≥ 6.00 | > 6.30 | > 7.30 | ≥ 6.00 | > 6.30 | > 7.00 |

The next lines start with the values.

| pIC50 [1, 4] | pIC50 [1, 5] | pIC50 [2, 6] | pIC50 [3, 7] | pIC50 [3, 8] | pIC50 [2, 9] | Compound |
| --- | --- | --- | --- | --- | --- | --- |
| ≥ 6.00 | > 6.30 | > 7.30 | ≥ 6.00 | > 6.30 |  | Cc1nc(N[C@H](C)c2cccc(C(F)F)c2F)c2cc(S(=O)(=O)C3CCN(C)CC3)c(Cl)nc2n1 [Compound 132, (R)-7-chloro-N-(1-(3-(difluoromethyl)-2-fluorophenyl)ethyl)-2-methyl-6-((1-methylpiperidin-4-yl)sulfonyl)pyrido[2,3-d]pyrimidin-4-amine] |
| ≥ 6.00 | > 6.30 | > 7.30 | ≥ 6.00 | > 6.30 | > 7.00 | COc1nc2nc(C)nc(N[C@H](C)c3cccc(C(F)F)c3F)c2cc1S(=O)(=O)C1CCN(C)CC1 [Compound 133, (R)-N-(1-(3-(difluoromethyl)-2-fluorophenyl)ethyl)-7-methoxy-2-methyl-6-((1-methylpiperidin-4-yl)sulfonyl)pyrido[2,3-d]pyrimidin-4-amine] |
| ≥ 6.00 | > 6.30 | > 7.30 | ≥ 6.00 | > 6.30 | > 7.00 | COc1nc2nc(C)nc(N[C@H](C)c3cccc(C(F)F)c3F)c2cc1[C@@H]1CCCN(C)C1 [Compound 134, N-((R)-1-(3-(difluoromethyl)-2-fluorophenyl)ethyl)-7-methoxy-2-methyl-6-((S)-1-methylpiperidin-3-yl)pyrido[2,3-d]pyrimidin-4-amine] |
